Measurements reported in patent US3979508A, “Compositions and methods therewith for penicillin hypersensitivity detection” (Kremers-Urban Company, priority 1975, dated 1976).
Several values for one entry are separate records, joined by “and”; a condition that tells them apart may be missing. Equal values may be shown once.

Columns and labels:
[1] = tested on: penicillin hypersensitivity (patients); experiment: Comparison of skin tests with penicilloyl-poly-L-lysine and penicillin G (Table III); format: in vivo, human; conditions: 1163 tested
Experimental: One of the uses for the conjugates of this invention is in skin testing for penicillin hypersensitivity. The conjugated compositions are prepared for skin testing by first dissolving the composition in buffered isotonic solutions, having a pH in the range from 7 to 8. For example, the conjugates prepared above may be diluted with aqueous solutions 0.15 M NaCl in 0.01 M phosphate, pH 7.6. In addition, other physiological salt solutions may be used.
Intradermal injections may be made of the foregoing solutions with a 26 guage needle, the volume injected may be generally about 0.01 to 0.03 cc. Alternatively, the conjugate may be applied by the scratch test technique. The development of a wheal at the injection site after about 20 minutes indicates a positive reaction, and penicillin hypersensitivity.
Penicillin hypersensitivity tests carried out with the conjugate compositions of this invention reflect the numerous advantages of penicillin hypersensitivity determinations made with such compositions. […] In Table II the distribution of skin reactions is shown by history of penicillin therapy and hypersensitivity. […] (See column 2, for example, showing the percentages of patients tested who had […] skin test.)

[2] = tested on: penicillin hypersensitivity (patients); experiment: Clinical evaluation by 26 investigators: scratch/intradermal skin tests with PPL and Penicillin G (Tables IV-VII, IX-XI); format: in vivo, human; conditions: for TOTAL (+) No. / TOTAL (+) Percent of total positive: skin reactive penicillin allergy patients
Experimental: Twenty-six clinical investigators contributed a total of 1160 cases to the evaluation. Patients were tested according to a protocol as follows:
1. All patients being subjected to allergy investigation were to be tested for penicillin hypersensitivity. Two preparations were to be used. These are:
2. Penicillin G (Benzyl Penicillin) in a concentration of 10,000 units per cc.
For maximum safety, it was recommended that the tests first be done by the scratch technique. Intradermal tests were then to be done on those showing negative scratch tests. In cases where the penicillin sensitivity was suspected to be of a violent character, more dilute reagents were recommended at the discretion of the individual investigator.
A uniform technique was recommended for the performance of the intradermal tests. Only a minimal amount of testing reagent was to be injected so as to make a barely discernible intradermal bleb. The amount necessary for this injection is about 0.01 to 0.03 cc. It was recognized that the intrepretation of the test results is an important matter. The reactions were to be recorded in terms of (1) the time required for the appearance of a reaction, (2) the size of erythema and (3) the size of whealing. These were to be recorded as actual measurements. Some objective measurement of dermographism was also to be recorded.
It was also contemplated that all patients who were to be treated with penicillin be tested as recommended above, even though they had previously received penicillin with impunity.
A comprehensive clinical history was takan on each patient with particular regard to previous penicillin therapy, and reaction.
In order to properly analyze the data on such a large number of patients, a data processing system was utilized.
Table IV summarizes the skin test results on all patients, without regard to other specific factors. […] It will also be noted that a significant number of patients reacted only to PPL, and another group only to Pen G. Therefore, to detect the maximum number of reactors, both test reagents would be required. A technical problem was classification of the ambiguous or borderline reactors, particularly those showing only erythema. Attempts to correlate the appearance of the erythematous flare without wheal formation with a history of penicillin hypersensitivity were unsuccessful. In some instances, however, erythema without wheal did appear to be associated with hypersensitivity to the antibiotic. The time of development of erythema without wheal varied widely from a few minutes to more than 7 days which also made its importance questionable. as a diagnostic sign. For these reasons erythema alone responses were counted with the negatives. In some instances, however, data will be presented in which erythema without wheal are counted as positive responses (figures appearing in parentheses).

[3] = Group I (675 patients): penicillin Rx, no hypersensitivity, erythema only counted as negative
[4] = Group I (675 patients): penicillin Rx, no hypersensitivity, parentheses: erythema only (ambiguous) counted as positive
[5] = Group II (352 patients): penicillin Rx & hypersensitive, erythema only counted as negative
[6] = Group II (352 patients): penicillin Rx & hypersensitive, parentheses: erythema only (ambiguous) counted as positive
[7] = Group III (70 patients): no penicillin Rx in past, erythema only counted as negative
[8] = Group III (70 patients): no penicillin Rx in past, parentheses: erythema only (ambiguous) counted as positive
[9] = Group IV (56 patients): no data, erythema only counted as negative
[10] = Group IV (56 patients): no data, parentheses: erythema only (ambiguous) counted as positive
[11] = TOTALS (1153 patients), erythema only counted as negative
[12] = TOTALS (1153 patients), parentheses: erythema only (ambiguous) counted as positive
[13] = TOTALS, all patients (1153 tested), erythema only counted as negative
[14] = TOTALS, all patients (1153 tested), parentheses: erythema only (ambiguous) counted as positive
[15] = history of therapy: Multi Courses (177 tested)
[16] = history of therapy: One Course (249 tested)
[17] = history of therapy: One Dose (152 tested)
[18] = history of therapy: TOTALS (578 tested)
[19] = reason for testing: "Penicillin" (240 tested)
[20] = reason for testing: Other Substances (463 tested)
[21] = reaction between 30 minutes and 24 hours post therapy, erythema only counted as negative
[22] = reaction between 30 minutes and 24 hours post therapy, parentheses: erythema only (ambiguous) counted as positive
[23] = reaction more than 24 hours post therapy, erythema only counted as negative
[24] = reaction more than 24 hours post therapy, parentheses: erythema only (ambiguous) counted as positive
[25] = reaction within 30 minutes post therapy, erythema only counted as negative
[26] = reaction within 30 minutes post therapy, parentheses: erythema only (ambiguous) counted as positive
[27] = type of hypersensitivity reaction: Skin (309 tested)
[28] = type of hypersensitivity reaction: Visceral (43 tested)

## CC1(C)S[C@@H]2[C@H](NC(=O)Cc3ccccc3)C(=O)N2[C@H]1C(=O)O [PG, Benzyl Penicillin, reference compound]
[1]
  POSITIVE SKIN TESTS %: 14.3%
  Positive Skin Tests, Number of Patients: 166
[2]; [3]
  Skin Test (+) No.: 24
  Skin Test (+) Percent: 3.6%
  Skin Test (-) No.: 651
  Skin Test (-) Percent: 96.4%
[2]; [4]
  Skin Test (+) No.: 56
  Skin Test (+) Percent: 8.3%
  Skin Test (-) No.: 619
  Skin Test (-) Percent: 91.7%
[2]; [5]
  Skin Test (+) No.: 47
  Skin Test (+) Percent: 13.4%
  Skin Test (-) No.: 305
  Skin Test (-) Percent: 86.6%
[2]; [6]
  Skin Test (+) No.: 65
  Skin Test (+) Percent: 18.5%
  Skin Test (-) No.: 287
  Skin Test (-) Percent: 81.5%
[2]; [7]
  Skin Test (-) No.: 70
  Skin Test (-) Percent: 100.0%
[2]; [8]
  Skin Test (+) No.: 5
  Skin Test (+) Percent: 7.1%
  Skin Test (-) No.: 65
  Skin Test (-) Percent: 92.9%
[2]; [9]
  Skin Test (+) No.: 1
  Skin Test (+) Percent: 1.8%
  Skin Test (-) No.: 55
  Skin Test (-) Percent: 98.2%
[2]; [10]
  Skin Test (+) No.: 3
  Skin Test (+) Percent: 5.3%
  Skin Test (-) No.: 53
  Skin Test (-) Percent: 94.6%
[2]; No reactions (675 tested)
  SKIN TEST RESPONSE No.: 24
  SKIN TEST RESPONSE Percent: 3.6%
[2]; [11]
  Skin Test (-) No.: 1081
  Skin Test (-) Percent: 93.8%
[2]; [12]
  Skin Test (-) No.: 1024
  Skin Test (-) Percent: 88.8%
[2]; [13]
  Skin Test (+) No.: 72
  Skin Test (+) Percent: 6.2% and 6.3%
[2]; [14]
  Skin Test (+) No.: 129
  Skin Test (+) Percent: 11.2%
[2]; delayed (after 24 hours) group
  positive skin tests, patients positive/patients in group: 17/144
[2]; delayed (after 24 hours) group, 144 patients
  positive skin tests, percent of group: 11.8%
[2]; [15]
  Skin Reactions PPL- / PEN G- No.: 10
  Skin Reactions PPL- / PEN G- Percent: 5.6%
[2]; [16]
  Skin Reactions PPL- / PEN G- No.: 8
  Skin Reactions PPL- / PEN G- Percent: 3.2%
[2]; [17]
  Skin Reactions PPL- / PEN G- No.: 17
  Skin Reactions PPL- / PEN G- Percent: 11.2%
[2]; [18]
  Skin Reactions PPL- / PEN G- No.: 35
  Skin Reactions PPL- / PEN G- Percent: 6.1%
[2]; immediate reacting group (within 30 minutes)
  positive skin tests, patients positive/patients in group: 17/56
[2]; immediate reacting group (within 30 minutes), 56 patients
  positive skin tests, percent of group: 30.4%
[2]; immediate reactor group
  percent of skin-test positive patients that would be missed if only this reagent were used as skin test antigen: 45%
[2]; [19]
  Skin Test (+) No.: 24
  Skin Test (+) Percent: 10.0%
[2]; [20]
  Skin Test (+) No.: 9
  Skin Test (+) Percent: 1.9%
[2]; scratch and intradermal skin testing of patients
  safety of skin testing: safe
[2]; [21]
  TOTAL (+) No.: 17
  TOTAL (+) Percent of total positive: 65.4%
[2]; [22]
  TOTAL (+) No.: 21
  TOTAL (+) Percent of total positive: 67.7%
[2]; [23]
  TOTAL (+) No.: 17
  TOTAL (+) Percent of total positive: 51.5%
[2]; reaction more than 24 hours post therapy, erythema only counted as negative, listed as Penicillin G
  TOTAL (+) Percent of total positive: ≤ 51.5%
[2]; [24]
  TOTAL (+) No.: 22
  TOTAL (+) Percent of total positive: 50.0%
[2]; [25]
  TOTAL (+) No.: 17
  TOTAL (+) Percent of total positive: 54.8%
[2]; reaction within 30 minutes post therapy, erythema only counted as negative, listed as Pen G
  TOTAL (+) Percent of total positive: 55%
[2]; reaction within 30 minutes post therapy, erythema only counted as negative, listed as Penicillin G
  TOTAL (+) Percent of total positive: 54.8%
[2]; [26]
  TOTAL (+) No.: 17
  TOTAL (+) Percent of total positive: 47.2%
[2]; [27]
  SKIN TEST RESPONSE No.: 39
  SKIN TEST RESPONSE Percent: 12.6%
[2]; [28]
  SKIN TEST RESPONSE No.: 14
  SKIN TEST RESPONSE Percent: 32.6%
